Values of other authors as cited in article PMC3600580 (Experimental neurology, 2012).

System: offspring
Conditions: developmental exposure, ref Kuriyama, et al., 2005, Rice, 2007, Suvorov, 2009

Structure (SMILES) | activity phenotype of offspring
Brc1ccc(Oc2ccc(Br)cc2Br)c(Br)c1 [BDE-47, 2,2′,4,4′-TetraBDE] | hyperactive
Brc1c(Br)c(Br)c(Oc2c(Br)c(Br)c(Br)c(Br)c2Br)c(Br)c1Br [compound 209] | hyperactive
